Measured values as given in ChEMBL document CHEMBL3507680, “University of Dundee, Gates Library screen for HepG2 cell viability”.

Assay: Human HepG2 cell viability assay in 384 well format
Type: toxicity, cell-based
Parameters: dose 125 nL, time 70.5 hour; cytotoxicity at 70.5 h: concentration not given beside the values
Settings: HepG2 cells, read-out: Inhibition

Cc1cc(C)n(-c2ccccc2NC(=O)NCCS(=O)(=O)CC(C)C)n1
cytotoxicity at 70.5 h: -8.6%

Cc1[nH]ccc1C(=O)N1CCC2(CC1)c1nc[nH]c1CCN2S(C)(=O)=O
cytotoxicity at 70.5 h: -4.51%

CCc1ccc(C(=O)NCc2ccnc(N3CCN(C)CC3)c2)o1
cytotoxicity at 70.5 h: -7.44%

O=C(CC1=CSC2=NCCCN12)N1CCCCCC1c1ccco1 (configuration not stated)
cytotoxicity at 70.5 h: 9.09%

CC(=O)N1CCN([C@@H]2CC[C@@H](NC(=O)c3cc(C)cs3)[C@H]2O)CC1
cytotoxicity at 70.5 h: -4.78%

CCN1CC2(CCC1=O)CCN(c1ccc(C(C)=O)cn1)CC2
cytotoxicity at 70.5 h: -3.76%

CS(=O)(=O)NCC1CCCCN1C(=O)c1cccc(C(F)(F)F)c1 (configuration not stated)
cytotoxicity at 70.5 h: -0.142%

CCc1nc(CC(=O)N2CCn3c(nnc3C(C)C)C2)cs1
cytotoxicity at 70.5 h: 0.586%

CCc1ccc(C(=O)NC2CCCN(c3ccn(C)n3)C2=O)o1 (configuration not stated)
cytotoxicity at 70.5 h: 9.2%

Cc1noc(NC(=O)c2ccc(C)c(F)c2)n1
cytotoxicity at 70.5 h: 41%

O=C(c1c[nH]nn1)N1CCN(C(c2ccccc2)C(F)(F)F)CC1 (configuration not stated)
cytotoxicity at 70.5 h: -10.3%

O=C(O)CCc1ccc(S(=O)(=O)Nc2cnn(CC3CC3)c2)cc1
cytotoxicity at 70.5 h: 27.6%

Cc1ccc(F)cc1C(=O)N1C[C@@H](CN2CCOCC2)[C@@H](CO)C1
cytotoxicity at 70.5 h: -6.59%

CN(CC(F)(F)F)C(=O)C1CSCN1C(=O)OC(C)(C)C (configuration not stated)
cytotoxicity at 70.5 h: 4.04%

CCOc1ncc(NC(=O)c2ccccn2)c(OCC)n1
cytotoxicity at 70.5 h: -13.3%

Nc1nnc(SCC(=O)c2cc3c(cc2Cl)NC(=O)C3)s1
cytotoxicity at 70.5 h: -25.4%

CN(Cc1cn(CC2CCNCC2)nn1)CC1CCCCO1 (configuration not stated)
cytotoxicity at 70.5 h: -8.15%

Cc1nc(CNC(=O)c2cc(COc3ccccc3)[nH]n2)n[nH]1
cytotoxicity at 70.5 h: -5.91%

Cc1nccc(N2CCCC(c3nnc(Cn4ccnc4C)n3C)C2)n1 (configuration not stated)
cytotoxicity at 70.5 h: 16.3%

Cc1occc1C(=O)N1C[C@@H]2CCCO[C@@H]2[C@H](NS(C)(=O)=O)C1
cytotoxicity at 70.5 h: -1.97%

O=C1CCNC(=O)N1CC(=O)N1CCC1c1ccc(F)cc1 (configuration not stated)
cytotoxicity at 70.5 h: -10.7%

Cc1ccc(S(=O)(=O)N2CCN(C)C3(CCC(=O)N(C)CC3)C2)s1 (configuration not stated)
cytotoxicity at 70.5 h: -5.58%

Cc1ncc(CNC(=O)Cc2ccc(Cl)cc2)c(C2CCCN2C)n1 (configuration not stated)
cytotoxicity at 70.5 h: -16.7%

O=C(Cc1ccc(F)cc1)NS(=O)(=O)c1ccc(F)c(F)c1
cytotoxicity at 70.5 h: -2.89%

COc1ccccc1CNc1ncc(-c2cc(C)no2)c(C(C)C)n1
cytotoxicity at 70.5 h: -9.02%

CC(C)N(C)S(=O)(=O)c1ccc2c(c1)CCN(C(=O)c1cnccn1)C2
cytotoxicity at 70.5 h: -5.23%

Cc1ccoc1-c1nnc(CN2CCn3c(nnc3C3CC3)C2)o1
cytotoxicity at 70.5 h: 31.2%

O=C1CC2(CCN(Cc3ccccn3)C2)CN1c1cncnc1 (configuration not stated)
cytotoxicity at 70.5 h: -16.1%

Cc1ccc(C2(O)CCN(C(=O)c3ccc(S(N)(=O)=O)cc3)CC2)nc1
cytotoxicity at 70.5 h: -12.2%

CC(C)C(=O)NC1CCCc2nc(N3CCOCC3)ncc21 (configuration not stated)
cytotoxicity at 70.5 h: -0.959%

O=C(c1ccc[nH]1)N1CCc2onc(COc3cccnc3)c2C1
cytotoxicity at 70.5 h: -4.03%

CCC(C)(C)NC(=O)c1ccc(-c2ccco2)[nH]c1=O
cytotoxicity at 70.5 h: 0.821%

Cc1cc(C2CCCN2Cc2ccc(S(=O)(=O)N3CCCC3)o2)on1 (configuration not stated)
cytotoxicity at 70.5 h: -102%

Cc1ncsc1C(=O)NCCCN1CCCCCC1=O
cytotoxicity at 70.5 h: -7.13%

CCN1CC2(CC1=O)CN(Cc1cccs1)CCN(C(=O)C(C)C)C2 (configuration not stated)
cytotoxicity at 70.5 h: 2.16%

CC1CCN(CC(=O)NC2CCN(C(C)c3ccccc3)CC2)CC1 (configuration not stated)
cytotoxicity at 70.5 h: -12.3%

CNc1nc(C2CCCN(C(=O)C(C)(C)OC)C2)nc2c1CN(C)CC2 (configuration not stated)
cytotoxicity at 70.5 h: -13.7%

CN1CC[C@]2(CN(S(C)(=O)=O)C[C@H]2c2ccccc2)C1=O
cytotoxicity at 70.5 h: 3.8%

Cc1cnn(CC2CCCN2CC(=O)Nc2cc(C(C)C)no2)c1 (configuration not stated)
cytotoxicity at 70.5 h: -7.84%

O=S1(=O)[C@@H](c2ccccc2)[C@H](CO)CN1C1CC1
cytotoxicity at 70.5 h: -1.65%

Cc1ccc(OCc2cccc(C(=O)N(C)CCC#N)c2)cn1
cytotoxicity at 70.5 h: 0.941%

CC(C)(C)OC(=O)N(CCNS(=O)(=O)N1CCOCC1)C1CC1
cytotoxicity at 70.5 h: -3.4%

NC(=O)c1cnn2c1NCC(CNCCc1cccs1)C2 (configuration not stated)
cytotoxicity at 70.5 h: -5.82%

Cc1cc(N2CCC(N(C)Cc3cccnc3)C2=O)n(C)n1 (configuration not stated)
cytotoxicity at 70.5 h: 13.5%

CC(C)CCN(C)Cc1nc2c(cnn2C)c(=O)[nH]1
cytotoxicity at 70.5 h: -5.91%

c1cc(CCN2CCC(NCc3ccsc3)CC2)ccn1
cytotoxicity at 70.5 h: 15.8%

O=C(c1cccnc1O)N1CCCC2(C=Cc3ccccc3O2)CC1 (configuration not stated)
cytotoxicity at 70.5 h: -4.51%

CCN1CC2(CC1=O)CN(Cc1cnn(C)c1)CCN(C(C)=O)C2 (configuration not stated)
cytotoxicity at 70.5 h: -0.943%

O=C(c1ccccn1)N1C[C@@H]2CC[C@H](C1)N(C(=O)CCC(F)(F)F)C2
cytotoxicity at 70.5 h: -3.18%

CNC(=O)[C@@H](c1ccccc1OC)N1CCC[C@H]1C(=O)NCCN(C)C
cytotoxicity at 70.5 h: -5.36%

CCCc1nnsc1C(=O)NCC1CCN(c2ncccn2)CC1
cytotoxicity at 70.5 h: -13.9%

O=C(NC1CC1)N1CCC2(CC1)CC(N1CCOCC1)c1ccccc12 (configuration not stated)
cytotoxicity at 70.5 h: -10.8%

CN1CCCCC1c1ccc(-n2ccnc2)nc1 (configuration not stated)
cytotoxicity at 70.5 h: -2.08%

O=C1CC(c2ccc(C(=O)O)cc2)c2ncn(-c3ccc(Cl)cc3)c2N1 (configuration not stated)
cytotoxicity at 70.5 h: -13%

Cc1nc(C)c(CC(=O)N2CCCN(CC3CC3)C(C(C)C)C2)c(=O)[nH]1 (configuration not stated)
cytotoxicity at 70.5 h: 0.531%

COc1cccc(OCCCc2cc(C#N)ccn2)c1
cytotoxicity at 70.5 h: 11%

Cc1cccc(CN2C[C@H]3C[C@H](C(=O)NCc4cccnc4)[C@@H](C2)O3)c1
cytotoxicity at 70.5 h: 25%

CCN(C)c1ncnc2c1CCN(C(=O)N1CCOCC1)CC2
cytotoxicity at 70.5 h: 6.06%

COc1ccc(OCC(=O)NS(=O)(=O)c2cc(C)ccc2C)cc1
cytotoxicity at 70.5 h: -6.75%

Cc1nn(C)c(C)c1OCC(=O)NCC(O)c1ccccc1F (configuration not stated)
cytotoxicity at 70.5 h: 0.771%

CCNC(=O)NC(=O)CNC(C)(C)c1ccc2c(c1)OCCO2
cytotoxicity at 70.5 h: -5.69%

O=C(CCc1ccsc1)N1CCC(Nc2cccnn2)CC1
cytotoxicity at 70.5 h: -3.07%

Cc1cc2nc(C(C)C)cc(N3CCSCC3)n2n1
cytotoxicity at 70.5 h: 16.2%

CNc1nc(CNC(=O)Nc2cccc(-c3ncc(C)o3)c2)cs1
cytotoxicity at 70.5 h: 9.47%

COCCN1CCN(S(=O)(=O)C2CC2)Cc2ccc(C)nc21
cytotoxicity at 70.5 h: -5.69%

CCC(=O)N1CCC2(CC1)C(=O)N(Cc1cccnc1)CCN2C
cytotoxicity at 70.5 h: -3.61%

CN(C)C(=O)c1cccc(CN2CCN(CCO)CC2)c1
cytotoxicity at 70.5 h: 38.5%

Cc1nsc(N2CCCN(C(=O)c3ccc4[nH]ccc4c3)CC2)n1
cytotoxicity at 70.5 h: -3.86%

NC(=O)N1CCC2(CC1)CN(Cc1cccnc1)C(=O)CO2
cytotoxicity at 70.5 h: -7.6%

COCC1CCCCN1C(=O)c1cc(-c2cccc(OC)c2)n[nH]1 (configuration not stated)
cytotoxicity at 70.5 h: -6.73%

CCc1nc(CN2CCCC(Cn3nc(C)nc3C)C2)no1 (configuration not stated)
cytotoxicity at 70.5 h: -9.12%

Cc1cnn(C2CCCN(C(=O)c3cc(Cl)c4c(c3)OCO4)C2)c1 (configuration not stated)
cytotoxicity at 70.5 h: 7.73%

CN1CCN(CC2(O)CCN(C(=O)CCc3ccccc3F)C2)CC1 (configuration not stated)
cytotoxicity at 70.5 h: 1.21%

COc1ccc(OC)c(C(C)Nc2nc3c(C)nn(C)c3c(=O)n2C)c1 (configuration not stated)
cytotoxicity at 70.5 h: 12.4%

Cn1c(N2CCOCC2)nc2cc(C(=O)NCC(F)(F)F)ccc21
cytotoxicity at 70.5 h: -9.13%

COc1ccc(C(=O)Nc2cccc(SC)c2)c(OC)n1
cytotoxicity at 70.5 h: 26.2%

Oc1cc(C2CCCCN2C2CCCC2)nc(-c2cccnc2)n1 (configuration not stated)
cytotoxicity at 70.5 h: -7.77%

CCOc1ccccc1-c1noc(CN2CCCC(O)C2)n1 (configuration not stated)
cytotoxicity at 70.5 h: -11.1%

Cn1cc([C@@H]2CN(S(=O)(=O)c3cccs3)C[C@H]2N)c2ccncc21
cytotoxicity at 70.5 h: 4.81%

COc1cc(CNCC(O)c2ccccc2)cc2c1OCO2 (configuration not stated)
cytotoxicity at 70.5 h: 3.15%

Cc1cnc(NCC(C)(C)N2CCN(C)CC2)nc1
cytotoxicity at 70.5 h: -0.355%

COCc1nc(CN2CCC3(CCCO3)CCC2=O)no1 (configuration not stated)
cytotoxicity at 70.5 h: -7.37%

N#Cc1ccc(C(=O)O)nc1/C=C/c1cccc(F)c1
cytotoxicity at 70.5 h: -7.55%

N#Cc1cccc(N2CCC3(CCC(=O)N(CCCO)C3)CC2)n1
cytotoxicity at 70.5 h: -9.82%

CCn1c(C)nnc1CN(C)C1CCN(CCc2cccs2)C1 (configuration not stated)
cytotoxicity at 70.5 h: 10.5%

O=C(CN1CCCC1c1nc2cc(F)ccc2[nH]1)NCc1ccccn1 (configuration not stated)
cytotoxicity at 70.5 h: -3.28%

CC(NC(=O)N1CCCN(C)CC1)c1ccc2c(c1)OCCO2 (configuration not stated)
cytotoxicity at 70.5 h: -6.8%

CS(=O)(=O)N1CCCC(c2cccc(-c3ccccc3F)n2)C1 (configuration not stated)
cytotoxicity at 70.5 h: -7.63%

CCc1ccc(C(=O)N2CCCN(Cc3nccn3CC)CC2)s1
cytotoxicity at 70.5 h: 14%

Cc1nc(COC[C@]23COC[C@H]2CN(Cc2ccoc2)C3)cs1
cytotoxicity at 70.5 h: -9.47%

CCS(=O)(=O)CCN1CCC(N(C)Cc2ncc(C)o2)C1 (configuration not stated)
cytotoxicity at 70.5 h: 0.306%

Cc1ccc(S(=O)(=O)N2CSCC2C(=O)NCC(F)(F)F)cc1C (configuration not stated)
cytotoxicity at 70.5 h: -3.59%

Cc1cccc(-c2noc(CN3CCC(N4CCNC4=O)CC3)n2)c1
cytotoxicity at 70.5 h: -0.858%

CC1(c2ccc(Br)cc2)CC(=O)N(CC(N)=O)C1=O (configuration not stated)
cytotoxicity at 70.5 h: 32.3%

Cc1noc(-c2cccnc2N(C)Cc2cscn2)n1
cytotoxicity at 70.5 h: -5.46%

O=C(O)C1(Cc2cc(-c3ccc(F)cc3)no2)CCOCC1
cytotoxicity at 70.5 h: 8.42%

Cc1nc(NC(=O)C(C)S(C)(=O)=O)sc1Cc1ccc(F)cc1 (configuration not stated)
cytotoxicity at 70.5 h: 7.99%

O=C(CN1CCc2cncnc2C1)NCCOc1cccc(Cl)c1
cytotoxicity at 70.5 h: -4.17%

Cc1cccc(Cn2nc(C3CCNCC3)n(-c3ccccc3)c2=O)c1
cytotoxicity at 70.5 h: -5.91%

CCOCc1nc2c(c(NCCNC(C)=O)n1)CCN(C(C)=O)CC2
cytotoxicity at 70.5 h: 16.6%

COCCNC(=O)Nc1cc2c(cc1SC)OCCO2
cytotoxicity at 70.5 h: -4.52%

C[C@@H]1CN(C(=O)c2ccc(C#N)nc2)CC[C@@]1(O)C1CCOCC1
cytotoxicity at 70.5 h: -9.58%

CC(C)Oc1cc(N2CCC(N3CCC(O)CC3)CC2)nc(N)n1
cytotoxicity at 70.5 h: -7.04%

COCCN1CCCC(Cc2cnc(-c3c(C)nn(C)c3C)cn2)C1 (configuration not stated)
cytotoxicity at 70.5 h: -5.51%

CCOC(=O)CC(C)NC(=O)c1cn(Cc2ccccc2F)nn1 (configuration not stated)
cytotoxicity at 70.5 h: -1.02%

Cc1nn(C)c(N(C)C)c1CNCc1cccnc1N1CCOCC1
cytotoxicity at 70.5 h: -8.33%

Cc1nc(C2CCN(c3ccccc3)CC2)no1
cytotoxicity at 70.5 h: 8.78%

Cc1ccc(C(NC(=O)Cc2nc3ncccn3n2)C2CC2)cc1 (configuration not stated)
cytotoxicity at 70.5 h: -11.9%

Cc1ccc(-c2cc(CN3CCCC(Cn4cncn4)C3)on2)cc1 (configuration not stated)
cytotoxicity at 70.5 h: 27.6%

COCCC1COC2(CCN(C(=O)C3CCCCC3)CC2)C1 (configuration not stated)
cytotoxicity at 70.5 h: -5.85%

Cn1cnc2c1CCN(CC(=O)NC1CCCCNC1=O)C2 (configuration not stated)
cytotoxicity at 70.5 h: 15.2%

CCn1ccnc1CN1CCCN(C(=O)c2ccc(C#N)cc2)CC1
cytotoxicity at 70.5 h: 0.738%
